Assay results reported in patent US12655116B2, “Substituted isophthalic acid diamides” (Bayer Aktiengesellschaft, priority 2020, dated 2026).

Columns and labels:
ECHCG [1] = test: Post-emergence herbicidal action against ECHCG; assay type: in vivo, Echinochloa crus-galli
Procedure, shortened: (§1)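 Herbicidal effect was scored visually in percent after about 3 weeks in the greenhouse. Plants had been raised in sandy loam and treated post-emergence at the one-leaf stage with formulated compound at 600 to 800 l/ha water plus 0.2% wetting agent.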

PHBPU [2] = test: Post-emergence herbicidal action against PHBPU; assay type: in vivo, Pharbitis purpurea
Procedure, shortened: as §1

ECHCG [3] = test: Pre-emergence herbicidal action against ECHCG; assay type: in vivo, Echinochloa crus-galli; conditions: 80 g/ha
Procedure, shortened: (§2)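 Herbicidal effect was assessed 3 weeks after treatment by visual comparison with untreated controls, 100% denoting dead plants. Aqueous WP or EC preparations had been applied at 600 to 800 l/ha with 0.2% wetting agent to the soil covering freshly sown seeds.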

MATIN [4] = test: Pre-emergence herbicidal action against MATIN; assay type: in vivo, Matricaria inodora
Procedure, shortened: as §2

VIOTR [5] = test: Pre-emergence herbicidal action against VIOTR; assay type: in vivo, Viola tricolor
Procedure, shortened: as §2

VIOTR [6] = test: Post-emergence herbicidal action against VIOTR; assay type: in vivo, Viola tricolor
Procedure, shortened: as §1

POLCO [7] = test: Post-emergence herbicidal action against POLCO; assay type: in vivo, Polygonum convolvulus; conditions: Fallopia convolvulus, 504 h
Method: Seeds of monocotyledonous and dicotyledonous weed and crop plants are laid out in sandy loam soil in wood-fiber pots, covered with soil and cultivated in a greenhouse under good growth conditions. 2 to 3 weeks after sowing, the test plants are treated at the one-leaf stage. The compounds of the invention, formulated in the form of wettable powders (WP) or as emulsion concentrates (EC), are then sprayed onto the green parts of the plants in the form of an aqueous suspension or emulsion at a water application rate equivalent to 600 to 800 l/ha, with addition of 0.2% wetting agent. After the test plants have been left to stand in the greenhouse under optimal growth conditions for about 3 weeks, the action of the preparations is assessed visually in comparison to untreated controls (herbicidal action in percent (%): 100% activity=the plants have died, 0% activity=like control plants). […] The tables below illustrate, in an illustrative manner, the post-emergence herbicidal action of the compounds of the invention, the herbicidal activity being stated in percent.

AMARE [8] = test: Pre-emergence herbicidal action against AMARE; assay type: in vivo, Amaranthus retroflexus
Procedure, shortened: as §2

SETVI [9] = test: Post-emergence herbicidal action against SETVI; assay type: in vivo, Setaria viridis
Procedure, shortened: as §1

ABUTH [10] = test: Post-emergence herbicidal action against ABUTH; assay type: in vivo, Abutilon theophrasti; conditions: visual assessment about 3 weeks after treatment vs untreated controls
Procedure, shortened: as §1

MATIN [11] = test: Post-emergence herbicidal action against MATIN; assay type: in vivo, Matricaria inodora; conditions: dosage 20 g/ha
Procedure, shortened: as §1

SETVI [12] = test: Pre-emergence herbicidal action against SETVI; assay type: in vivo, Setaria viridis; conditions: dosage 80 g/ha
Procedure, shortened: as §2

DIGSA [13] = test: Pre-emergence herbicidal action against DIGSA; assay type: in vivo, Digitaria sanguinalis
Procedure, shortened: as §2

ABUTH [14] = test: Pre-emergence herbicidal action against ABUTH; assay type: in vivo, Abutilon theophrasti
Procedure, shortened: as §2

VERPE [15] = test: Post-emergence herbicidal action against VERPE; assay type: in vivo, Veronica persica
Procedure, shortened: as §1

STEME [16] = test: Pre-emergence herbicidal action against STEME; assay type: in vivo, Stellaria media
Procedure, shortened: as §2

ALOMY [17] = test: Post-emergence herbicidal action against ALOMY; assay type: in vivo, Alopecurus myosuroides; conditions: dosage 20 g/ha, visual assessment about 3 weeks after treatment vs untreated controls
Procedure, shortened: as §1

ALOMY [18] = test: Pre-emergence herbicidal action against ALOMY; assay type: in vivo, Alopecurus myosuroides; conditions: 80 g/ha, pre-emergence, scored visually after 3 weeks vs untreated controls (100% = plants have died, 0% = like control plants)
Procedure, shortened: as §2

HORMU [19] = test: Post-emergence herbicidal action against HORMU; assay type: in vivo, Hordeum murinum; conditions: dosage 20 g/ha
Procedure, shortened: as §1

STEME [20] = test: Post-emergence herbicidal action against STEME; assay type: in vivo, Stellaria media
Procedure, shortened: as §1

PHBPU [21] = test: Pre-emergence herbicidal action against PHBPU; assay type: in vivo, Pharbitis purpurea; conditions: dosage 80 g/ha
Procedure, shortened: as §2

HORMU [22] = test: Pre-emergence herbicidal action against HORMU; assay type: in vivo, Hordeum murinum; conditions: 80 g/ha, pre-emergence
Procedure, shortened: as §2

AVEFA [23] = test: Post-emergence herbicidal action against AVEFA; assay type: in vivo, Avena fatua; conditions: 20 g/ha, visual assessment about 3 weeks after treatment, 100% = plants have died, 0% = like control plants
Procedure, shortened: as §1

AVEFA [24] = test: Pre-emergence herbicidal action against AVEFA; assay type: in vivo, Avena fatua; conditions: 80 g/ha, pre-emergence
Procedure, shortened: as §2

AMARE [25] = test: Post-emergence herbicidal action against AMARE; assay type: in vivo, Amaranthus retroflexus; conditions: 20 g/ha, visual assessment about 3 weeks after treatment, 100% = plants have died, 0% = like control plants
Procedure, shortened: as §1

DIGSA [26] = test: Post-emergence herbicidal action against DIGSA; assay type: in vivo, Digitaria sanguinalis
Procedure, shortened: as §1

VERPE [27] = test: Pre-emergence herbicidal action against VERPE; assay type: in vivo, Veronica persica; conditions: dosage 80 g/ha
Procedure, shortened: as §2

POLCO [28] = test: Pre-emergence herbicidal action against POLCO; assay type: in vivo, Polygonum convolvulus; conditions: dosage 80 g/ha
Procedure, shortened: as §2

LOLRI = test: Pre-emergence herbicidal action against LOLRI; assay type: in vivo, Lolium rigidum; conditions: 80 g/ha
Procedure, shortened: as §2

[29] = 80 g/ha, scored visually after 3 weeks vs untreated controls (100% = plants have died, 0% = like control plants)

CNC(=O)c1c(C(F)F)ccc(C(=O)Nc2nnnn2C)c1OC [Example 1-72]
pest or weed control at 20 g/ha (ECHCG [1]; Echinochloa crus-galli, 504 h, dosage 20 g/ha): 80%
pest or weed control at 20 g/ha (PHBPU [2]; Ipomoea purpurea, 504 h, dosage 20 g/ha): 80%
pest or weed control at 80 g/ha (ECHCG [3]; Echinochloa crus-galli, 504 h): 80%
pest or weed control at 20 g/ha (MATIN [4]; Tripleurospermum inodorum, 504 h, dosage 20 g/ha): 80%
pest or weed control at 80 g/ha (MATIN [4]; Tripleurospermum inodorum, 504 h, dosage 80 g/ha): 100%
pest or weed control at 80 g/ha (VIOTR [5]; Viola tricolor, 504 h, dosage 80 g/ha): 100%
pest or weed control at 20 g/ha (VIOTR [6]; Viola tricolor, 504 h, 20 g/ha): 90%
pest or weed control at 5 g/ha (POLCO [7]; dosage 5 g/ha): 100%
pest or weed control at 20 g/ha (POLCO [7]; dosage 20 g/ha): 100%
pest or weed control at 20 g/ha (AMARE [8]; Amaranthus retroflexus, 504 h, 20 g/ha, scored visually after 3 weeks vs untreated controls, 100% = plants have died, 0% = like control plants): 100%
pest or weed control at 80 g/ha (AMARE [8]; Amaranthus retroflexus, 504 h, 80 g/ha, scored visually after 3 weeks vs untreated controls, 100% = plants have died, 0% = like control plants): 100%
pest or weed control at 20 g/ha (SETVI [9]; Setaria viridis, 504 h, dosage 20 g/ha): 80%
pest or weed control at 5 g/ha (ABUTH [10]; Abutilon theophrasti, 504 h, dosage 5 g/ha): 80%
pest or weed control at 20 g/ha (ABUTH [10]; Abutilon theophrasti, 504 h, dosage 20 g/ha): 90%
pest or weed control at 20 g/ha (MATIN [11]; Tripleurospermum inodorum, 504 h): 80%
pest or weed control at 80 g/ha (SETVI [12]; Setaria viridis, 504 h): 100%
pest or weed control at 20 g/ha (DIGSA [13]; Digitaria sanguinalis, 504 h, dosage 20 g/ha): 90%
pest or weed control at 80 g/ha (DIGSA [13]; Digitaria sanguinalis, 504 h, dosage 80 g/ha): 100%
pest or weed control at 80 g/ha (ABUTH [14]; Abutilon theophrasti, 504 h, 80 g/ha, scored visually after 3 weeks vs untreated controls (100% = plants have died, 0% = like control plants)): 100%
pest or weed control at 20 g/ha (ABUTH [14]; Abutilon theophrasti, 504 h, dosage 20 g/ha, scored visually after 3 weeks vs untreated controls, 100% = plants have died, 0% = like control plants, read-out: Pre-emergence action against ABUTH (herbicidal activity in percent)): 100%
pest or weed control at 5 g/ha (VERPE [15]; Veronica persica, 504 h, 5 g/ha): 80%
pest or weed control at 20 g/ha (VERPE [15]; Veronica persica, 504 h, 20 g/ha): 90%

CCNC(=O)c1c(C(F)F)ccc(C(=O)Nc2nnnn2CC)c1SC [Example 2-88]
Pre-emergence action against STEME in % (STEME [16]; dosage 20 g/ha): 100%
Pre-emergence action against STEME in % (STEME [16]; dosage 80 g/ha): 100%
Post-emergence action against ECHCG in % (ECHCG [1]; dosage 5 g/ha): 80%
Post-emergence action against ECHCG in % (ECHCG [1]; dosage 20 g/ha): 80%
Post-emergence action against PHBPU in % (PHBPU [2]; dosage 5 g/ha): 80%
Post-emergence action against PHBPU in % (PHBPU [2]; dosage 20 g/ha): 90%
Post-emergence action against ALOMY in % (ALOMY [17]): 80%
Pre-emergence action against ECHCG in % (ECHCG [3]): 100%
Pre-emergence action against ALOMY (herbicidal activity) (ALOMY [18]): 90%
Pre-emergence action against MATIN in % (MATIN [4]; dosage 20 g/ha): 100%
Pre-emergence action against MATIN in % (MATIN [4]; dosage 80 g/ha): 100%
Post-emergence action against HORMU in % (HORMU [19]): 80%
Pre-emergence action against VIOTR in % (VIOTR [5]; dosage 20 g/ha): 100%
Pre-emergence action against VIOTR in % (VIOTR [5]; dosage 80 g/ha): 100%
Post-emergence action against VIOTR in % (VIOTR [6]; 5 g/ha): 80%
Post-emergence action against VIOTR in % (VIOTR [6]; 20 g/ha): 90%
Pre-emergence action against AMARE in % (AMARE [8]; 20 g/ha, scored visually after 3 weeks vs untreated controls, 100% = plants have died, 0% = like control plants): 100%
Pre-emergence action against AMARE in % (AMARE [8]; [29]): 100%
Post-emergence action against STEME in % (STEME [20]; 20 g/ha): 100%
Post-emergence action against STEME in % (STEME [20]; dosage 5 g/ha): 90%
Post-emergence action against SETVI in % (SETVI [9]; dosage 5 g/ha): 90%
Post-emergence action against SETVI in % (SETVI [9]; dosage 20 g/ha): 100%
Pre-emergence action against PHBPU in % (PHBPU [21]): 90%
Post-emergence action against ABUTH in % (ABUTH [10]; dosage 5 g/ha): 90%
Post-emergence action against ABUTH in % (ABUTH [10]; dosage 20 g/ha): 90%
Pre-emergence action against HORMU in % (HORMU [22]): 80%
Post-emergence action against MATIN in % (MATIN [11]): 80%
Pre-emergence action against SETVI in % (SETVI [12]): 100%
Post-emergence action at 20 g/ha against AVEFA in % (AVEFA [23]): 80%
Pre-emergence action against DIGSA in % (DIGSA [13]; dosage 20 g/ha): 100%
Pre-emergence action against DIGSA in % (DIGSA [13]; dosage 80 g/ha): 100%
Pre-emergence action against AVEFA in % (AVEFA [24]): 90%
Pre-emergence action against ABUTH (herbicidal activity) (ABUTH [14]; [29]): 100%
Pre-emergence action against ABUTH (herbicidal activity in percent) (ABUTH [14]; dosage 20 g/ha, scored visually after 3 weeks vs untreated controls, 100% = plants have died, 0% = like control plants): 100%
Post-emergence action at 20 g/ha against AMARE in % (AMARE [25]): 90%
Post-emergence action against DIGSA in % (DIGSA [26]; 5 g/ha): 90%
Post-emergence action against DIGSA (DIGSA [26]; 20 g/ha): 90%
Pre-emergence action against VERPE in % (VERPE [27]): 100%
Pre-emergence action against POLCO in % (POLCO [28]): 90%
Pre-emergence action against LOLRI in % (LOLRI): 80%
Post-emergence action against VERPE in % (VERPE [15]; 20 g/ha): 80%
